The values below come from ChEMBL document CHEMBL5370596, “Wulfenioidins D-N, Structurally Diverse Diterpenoids with Anti-Zika Virus Activity Isolated from Orthosiphon wulfenioides” (J Nat Prod, 2023).

Active and inactive are the calls of the source. The rule behind the calls is not given here.

One data set deals with Vero. Put plainly: (§1) Cytotoxicity against African green monkey Vero cells assessed as reduction in cell viability after 72 hrs by CCK-8 assay. It counts as toxicity, cell-based. The following applies: chlorocebus sabaeus, vero, 72 h.
Data set [1] in a line: as §1. It counts as toxicity, cell-based. The following applies: chlorocebus sabaeus, Vero cells.
For data set [2], the system named is Zika virus. The data set can be described thus: Antiviral activity against ZIKV infected in African green monkey Vero cells assessed as inhibition of viral replication at 50 uM incubated for 72 hrs by qRT-PCR analysis. The data set is classed as functional, organism-based.
Data set [3] deals with Zika virus. The data set can be described thus: Antiviral activity against ZIKV infected in African green monkey Vero cells assessed as inhibition of viral replication incubated for 72 hrs by qRT-PCR analysis. The data set is classed as functional, organism-based. (Real-time PCR tracks product formation cycle by cycle.)
In data set [4] the test system is Zika virus. Put plainly: Antiviral activity against ZIKV infected in African green monkey Vero cells assessed as inhibition of viral E protein expression incubated for 72 hrs by Western blot analysis. Particulars: dose 5-20 µM. It counts as functional, organism-based. Background: A western blot detects proteins with antibodies after separation by electrophoresis.

In data set [5] the test system is Zika virus. Put plainly: Antiviral activity against ZIKV infected in African green monkey Vero cells assessed as inhibition of viral E protein expression at 20 uM incubated for 72 hrs by immunofluorescence analysis. It counts as functional, organism-based.

With `CC(C)c1cc2c(c3ocnc13)[C@@]1(C)CCCC(C)(C)[C@@H]1CC2`, the Activity result in the data set on Vero is recorded as “Toxic”.
Consider `COC(C)(C)C1=Cc2ccc(C)c3c2[C@@](O)(C1=O)C(C)(C)CCC3`, for which the 50% cytotoxic concentration (CC50) (usually the concentration that lowers cell viability or growth by half) at 72 h in data set [1] is greater than 100 µM. In addition, the inhibition entry in the data set with Zika virus [2] and in the data set on Zika virus [5] was “Active” each time. The EC50 (commonly the concentration at which the effect is half-maximal) in the data set with Zika virus [3] amounted to 8 µM. The inhibition entry in the data set with Zika virus [4] is “Dose-Dependent Effect”.
With `CO[C@@H]1CCC(C)(C)Oc2c(O)c(C(C)C)cc3ccc(C)c1c23`, the CC50 at 72 h in data set [1] was greater than 100 µM. The inhibition entry in the data set with Zika virus [2] and in the data set on Zika virus [5] was “Active” each time. The EC50 in the data set on Zika virus [3] worked out at 8.07 µM. In addition, the inhibition result in the data set on Zika virus [4] is “Dose-Dependent Effect”.
In the case of `CC1=C2CCCC(C)(C)[C@@H]2CC[C@@]12C=C(C(C)C)C(=O)O2`, the Activity entry in the data set on Vero is “Toxic”.
`CCc1nc2c(C(C)C)cc3c(c2o1)[C@@]1(C)CCCC(C)(C)[C@@H]1CC3`: in the data set on Vero, the Activity result is “Toxic”.
For `Cc1nc2c(C(C)C)cc3c(c2o1)[C@@]1(C)CCCC(C)(C)[C@@H]1C=C3`, the Activity result with Vero is recorded as “Toxic”.
